According to PubChem BioAssay AID1918991 (Molecular Pharmacology Branch, DTP, NCI, 2023):
Values joined by “and” are separate entries in the source; they are usually repeats but may differ in a detail not shown here. Equal entries are not always repeated. Values belong to the molecule of their own block, whether it stands above or below them.

Test system: 186277-243-T-J2-PDC complex spheroid growth
Assay: Anticancer human tumor 186277-243-T-J2-PDC patient-derived colon adenocarcinoma cell line growth inhibition [AhR]
Details: for viability, T/C: stronger effect = lower value
Outline: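 Spheroids combined tumor cells with HUVEC endothelial cells and human MSCs as stroma. AhR antagonists were paired with standard or investigational drugs, each dosed in half-log steps down from near clinical Cmax, or from 10 microM where Cmax was unknown.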

[1] = curve of first compound, second compound 0.1 µM
[2] = curve of first compound, second compound 0.316 µM
[3] = curve of first compound, second compound 1 µM
[4] = curve of first compound, second compound 3.16 µM
[5] = curve of first compound, second compound 10 µM
[6] = second compound 0.1 µM, first compound 0.00316 µM
[7] = second compound 0.1 µM, first compound 0.01 µM
[8] = second compound 0.1 µM, first compound 0.0316 µM
[9] = second compound 0.1 µM, first compound 0.1 µM
[10] = second compound 0.316 µM, first compound 0.00316 µM
[11] = second compound 0.316 µM, first compound 0.01 µM
[12] = second compound 0.316 µM, first compound 0.0316 µM
[13] = second compound 0.316 µM, first compound 0.1 µM
[14] = second compound 1 µM, first compound 0.00316 µM
[15] = second compound 1 µM, first compound 0.01 µM
[16] = second compound 1 µM, first compound 0.0316 µM
[17] = second compound 1 µM, first compound 0.1 µM
[18] = second compound 3.16 µM, first compound 0.00316 µM
[19] = second compound 3.16 µM, first compound 0.01 µM
[20] = second compound 3.16 µM, first compound 0.0316 µM
[21] = second compound 3.16 µM, first compound 0.1 µM
[22] = second compound 10 µM, first compound 0.00316 µM
[23] = second compound 10 µM, first compound 0.01 µM
[24] = second compound 10 µM, first compound 0.0316 µM
[25] = second compound 10 µM, first compound 0.1 µM
[26] = second compound 0.1 µM, first compound 0.316 µM
[27] = second compound 0.1 µM, first compound 1 µM
[28] = second compound 0.1 µM, first compound 3.16 µM
[29] = second compound 0.1 µM, first compound 10 µM
[30] = second compound 0.316 µM, first compound 0.316 µM
[31] = second compound 0.316 µM, first compound 1 µM
[32] = second compound 0.316 µM, first compound 3.16 µM
[33] = second compound 0.316 µM, first compound 10 µM
[34] = second compound 1 µM, first compound 0.316 µM
[35] = second compound 1 µM, first compound 1 µM
[36] = second compound 1 µM, first compound 3.16 µM
[37] = second compound 1 µM, first compound 10 µM
[38] = second compound 3.16 µM, first compound 0.316 µM
[39] = second compound 3.16 µM, first compound 1 µM
[40] = second compound 3.16 µM, first compound 3.16 µM
[41] = second compound 3.16 µM, first compound 10 µM
[42] = second compound 10 µM, first compound 0.316 µM
[43] = second compound 10 µM, first compound 1 µM
[44] = second compound 10 µM, first compound 3.16 µM
[45] = second compound 10 µM, first compound 10 µM
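Further: spheroids exposed to compounds for seven days before the viability read.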
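Wherever viability, T/C is given: luminescent signal used as a stand-in for viable cell amount; 100% = DMSO vehicle control wells.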

Structure (SMILES): COc1ccc([C@@H](O)c2cc(-c3ncnc4cc(N5CCOCC5)ccc34)c(F)cc2Cl)nn1 + CC(CO)NC(=O)c1cc(-c2ccc(Cl)cc2)nn(-c2cnn(C)c2)c1=O
IC50 [1]: 3230 nM
IC50 [2]: 3710 nM
IC50 [3]: 3030 nM
IC50 [4]: 2560 nM
IC50 [5]: 1620 nM
viability, T/C [8]: 105%
viability, T/C [9]: 96.3%
viability, T/C [26]: 96.8%
viability, T/C [27]: 73.5%
viability, T/C [28]: 51.6%
viability, T/C [29]: 20.7%
viability, T/C [12]: 109%
viability, T/C [13]: 98.8%
viability, T/C [30]: 84.2%
viability, T/C [31]: 85.1%
viability, T/C [32]: 53.9%
viability, T/C [33]: 18.4%
viability, T/C [16]: 95.5%
viability, T/C [17]: 95.6%
viability, T/C [34]: 87.3%
viability, T/C [35]: 78.8%
viability, T/C [36]: 48.4%
viability, T/C [37]: 19.1%
viability, T/C [20]: 88.3%
viability, T/C [21]: 95.7%
viability, T/C [38]: 87%
viability, T/C [39]: 74.8%
viability, T/C [40]: 44.5%
viability, T/C [41]: 18.1%
viability, T/C [24]: 88.8%
viability, T/C [25]: 72.6%
viability, T/C [42]: 78.9%
viability, T/C [43]: 64%
viability, T/C [44]: 30.7%
viability, T/C [45]: 15.6%

Structure (SMILES): Nc1ccccc1NC(=O)c1ccc(CNC(=O)OCc2cccnc2)cc1 + CC(CO)NC(=O)c1cc(-c2ccc(Cl)cc2)nn(-c2cnn(C)c2)c1=O
IC50 [1]: 560 nM
IC50 [2]: 486 nM
IC50 [3]: 496 nM
IC50 [4]: 447 nM
IC50 [5]: 211 nM
viability, T/C [8]: 89%
viability, T/C [9]: 95.2%
viability, T/C [26]: 67.4%
viability, T/C [27]: 30.2%
viability, T/C [28]: 10.7%
viability, T/C [29]: 0.66%
viability, T/C [12]: 84.3%
viability, T/C [13]: 87.1%
viability, T/C [30]: 57.2%
viability, T/C [31]: 32.9%
viability, T/C [32]: 8.17%
viability, T/C [33]: 0.43%
viability, T/C [16]: 93%
viability, T/C [17]: 94.7%
viability, T/C [34]: 61.8%
viability, T/C [35]: 28.1%
viability, T/C [36]: 8.39%
viability, T/C [37]: 0.38%
viability, T/C [20]: 83.7%
viability, T/C [21]: 79.7%
viability, T/C [38]: 62.2%
viability, T/C [39]: 22.2%
viability, T/C [40]: 7.6%
viability, T/C [41]: 0.3%
viability, T/C [24]: 70.3%
viability, T/C [25]: 68.8%
viability, T/C [42]: 39.2%
viability, T/C [43]: 16.6%
viability, T/C [44]: 7.12%
viability, T/C [45]: 0.32%

Structure (SMILES): O=C(C=Cn1cnc(-c2cc(C(F)(F)F)cc(C(F)(F)F)c2)n1)NNc1cnccn1
viability, T/C (compound 0.00949 µM): 92.2% and 97% and 81.2%
viability, T/C (compound 0.03 µM): 102% and 90.7% and 65.3%
viability, T/C (compound 0.0949 µM): 102% and 91.8% and 41.7%
viability, T/C (compound 0.3 µM): 74.7% and 80.7% and 10.9%
viability, T/C (compound 0.949 µM): 12.6% and 17.4% and 2.87%
viability, T/C (compound 3 µM): 4.45% and 8.73% and 1.48%
IC50 (curve of compound): 474 nM and 524 nM and 61.5 nM

Structure (SMILES): O=C(C=Cc1cccc(S(=O)(=O)Nc2ccccc2)c1)NO
viability, T/C (compound 0.0316 µM): 96.8% and 107% and 99.7%
viability, T/C (compound 0.1 µM): 93.5% and 112% and 84.1%
viability, T/C (compound 0.316 µM): 99.1% and 95.8% and 46.9%
viability, T/C (compound 1 µM): 55.2% and 91.8% and 13.2%
viability, T/C (compound 10 µM): 5.03% and 5.28% and 0.5%
IC50 (curve of compound): 1160 nM and 2160 nM and 285 nM

The next lines start with results.

IC50 [1]: > 100 nM
IC50 [2]: > 100 nM
IC50 [3]: > 100 nM
IC50 [4]: > 100 nM
IC50 [5]: > 100 nM
Structure (SMILES): Cn1ncnc1C1c2n[nH]c(=O)c3cc(F)cc(c23)NC1c1ccc(F)cc1 (stereo not given) + Cc1cncc(-c2nc(NCCc3c[nH]c4ccccc34)c3ncn(C(C)C)c3n2)c1
viability, T/C (second compound 0.1 µM, first compound 0.000316 µM): 89%
viability, T/C (second compound 0.1 µM, first compound 0.001 µM): 83.9%
viability, T/C [6]: 100%
viability, T/C [7]: 107%
viability, T/C [8]: 115%
viability, T/C [9]: 123%
viability, T/C (second compound 0.316 µM, first compound 0.000316 µM): 109%
viability, T/C (second compound 0.316 µM, first compound 0.001 µM): 103%
viability, T/C [10]: 95%
viability, T/C [11]: 110%
viability, T/C [12]: 121%
viability, T/C [13]: 135%
viability, T/C (second compound 1 µM, first compound 0.000316 µM): 92.5%
viability, T/C (second compound 1 µM, first compound 0.001 µM): 97.1%
viability, T/C [14]: 102%
viability, T/C [15]: 107%
viability, T/C [16]: 130%
viability, T/C [17]: 139%
viability, T/C (second compound 3.16 µM, first compound 0.000316 µM): 102%
viability, T/C (second compound 3.16 µM, first compound 0.001 µM): 95.3%
viability, T/C [18]: 99.3%
viability, T/C [19]: 112%
viability, T/C [20]: 127%
viability, T/C [21]: 128%
viability, T/C (second compound 10 µM, first compound 0.000316 µM): 77.4%
viability, T/C (second compound 10 µM, first compound 0.001 µM): 90.7%
viability, T/C [22]: 83.7%
viability, T/C [23]: 66.9%
viability, T/C [24]: 69.6%
viability, T/C [25]: 68%

IC50 [1]: > 1000 nM
IC50 [2]: > 1000 nM
IC50 [3]: > 1000 nM
IC50 [4]: > 1000 nM
IC50 [5]: > 1000 nM
Structure (SMILES): Nc1ncn(C2CC(O)C(CO)O2)c(=O)n1 (stereo not given) + CC(CO)NC(=O)c1cc(-c2ccc(Cl)cc2)nn(-c2cnn(C)c2)c1=O
viability, T/C [6]: 110%
viability, T/C [7]: 103%
viability, T/C [8]: 89.3%
viability, T/C [9]: 85.1%
viability, T/C [26]: 64.5%
viability, T/C [27]: 52.1%
viability, T/C [10]: 92%
viability, T/C [11]: 82.3%
viability, T/C [12]: 85.8%
viability, T/C [13]: 84.9%
viability, T/C [30]: 63.6%
viability, T/C [31]: 52.8%
viability, T/C [14]: 84.6%
viability, T/C [15]: 97.6%
viability, T/C [16]: 96.1%
viability, T/C [17]: 80.9%
viability, T/C [34]: 66.2%
viability, T/C [35]: 55.2%
viability, T/C [18]: 91.5%
viability, T/C [19]: 95.1%
viability, T/C [20]: 94.3%
viability, T/C [21]: 82.5%
viability, T/C [38]: 66.8%
viability, T/C [39]: 59.4%
viability, T/C [22]: 90.3%
viability, T/C [23]: 81.2%
viability, T/C [24]: 90.9%
viability, T/C [25]: 79%
viability, T/C [42]: 63.1%
viability, T/C [43]: 51.7%

IC50 (curve of compound): > 300 nM and 134 nM
Structure (SMILES): Nc1ncn(C2CC(O)C(CO)S2)c(=O)n1 (stereo not given)
viability, T/C (compound 0.000949 µM): 87.2% and 104% and 95.7%
viability, T/C (compound 0.003 µM): 88% and 111% and 97.1%
viability, T/C (compound 0.00949 µM): 108% and 115% and 92.5%
viability, T/C (compound 0.03 µM): 125% and 111% and 78.5%
viability, T/C (compound 0.0949 µM): 128% and 116% and 60.8%
viability, T/C (compound 0.3 µM): 102% and 117% and 26.4%
